Laboratory results from US20250100962A1 (CITY OF HOPE, priority 2023, published 2025).

Columns and labels:
CLOCK protein = CLOCK protein palmitoylation (acyl-biotin exchange) and stability; type: cell-based
Description: FIGS. 11A-11C. Analysis of CLOCK protein S-palmitoylation. FIGS. 11A-11B: Identification of CLOCK palmitoylation by acyl-biotin exchange method using hydroxylamine (HAM). […] FIG. 11C: Structural modeling of the palmitoylation pocket and the docking pose within the hydrophobic pocket that lies between the interface of CLOCK interaction with Bmal1. FIGS. 12A-12C. Palmitoylation modulates CLOCK protein stability and interaction with Bmal1. […] FIG. 12B: CLOCK palmitoylation cysteine mutations inhibit its interaction with heterodimer partner Bmal1 and Bmal1 stability by single amino acid mutations. FIG. 12C: CLOCK palmitoylation site mutations attenuated CLOCK-mediated transcription activation.

C2C12 myoblasts = test: Myogenic differentiation of C2C12 myoblasts; type: cell-based, mouse; conditions: Table 1 summary of CHX analogs
Experimental: Pictures were taken every day to monitor morphological progression, and proteins and RNA samples were collected on days indicated.
C2C12, C2C12 Bmal1 KD and C2C12 Scrambled control (SC) myoblasts were seeded at Day −1 at 2×105 concentration on 12 wells plates and maintained in 10% FBS until 80% confluency and treated with indicated compounds and controls in 2% FBS DMEM media to induce differentiation on Day 0. On days 3, 5 and 7 cells were fixed with 4% paraformaldehyde (from 37% Formaldehyde Baker Analyzed) and kept at 4° C. in PBS. Cells were permeabilized with Permeabilization solution of 0.5% Triton X-100 (Fisher Bioreagents CN: 9002-93-1) in PBS and blocked with Blocking solution of 1% BSA (Fisher Bioreagents CN:9048-46-8) in PBS. Primary antibodies were diluted in Washing solution of 0.01% Triton X-100 (Fisher Bioreagents CN: 9002-93-1) in PBS and left overnight at 4° C. Cells were then incubated with secondary antibodies in Washing solution at room temperature for 1 h. 1 μg/ml 4′,6′-diamidine-2′-phenylindole dihydrochloride (DAPI) was used to label for nuclei. […] To quantify the proliferation of myoblast, when needed, cells were treated with 1 μg/ml of EdU for 3 h before fixation. Detection of EdU was performed with Click-iT EdU Alexa Fluor 488 Imaging Kit before applying the immunofluorescence staining as described above.

[1] = system: U2OS cells containing Per2::dLuc luciferase reporter; test: Real-time bioluminescence monitoring of Per2::Luciferase reporter in U2OS cells (LumiCycle); type: cell-based; conditions: for LumiCycle Result: Clock activity, Amplitude / LumiCycle Result: Clock activity, Period: Table 1; for LumiCycle Result: Clock activity, Amplitude / LumiCycle Result: Clock activity (overall) / LumiCycle Result: Clock activity, Period: U2OS Per2::dLuc; for LumiCycle Result: Clock activity (overall): CHX analogs screened; for Modulatory Property: clock-modulatory classification
Experimental: U2OS cells or mouse fibroblasts (MF) containing a Per2-luciferase reporter (Yoo et al., 2004) were seeded at 4×10^5 concentration on 24 well plates and treated at 90% confluence with 1 ml 1×Fresh explant medium with desired compounds and controls. The seeding density was decided after trying several densities and choosing the one that after 24 h lead to 90% confluence. 1× Fresh explant medium was produced using 50% 2×DMEM buffer stock [DMEM powder (Gibco—Thermo Fisher CN: 12800-017), Sterile MilliQ water, pH7 1 M HEPES (Gibco—Thermo Fisher CN:15630080) and 7.5% Sodium Bicarbonate (Gibco—Thermo Fisher CN: 25080094)], 10% FBS (Cytiva), 37.9% Sterile MiliQ water, 1% PSG 100× (Gibco—Thermo Fisher CN: 10378016), 0.1% Sodium Hydroxixe (NaOH) 100 mM (Fishel Chemical CN: S318-500), 1% XenoLight D-Luciferin—Monopotassium Salt Bioluminiscent Substrate 100 mM (PerkinElmer CN: 122799). Treated cells were introduced to the LumiCycle96 (ActiMetrics) were they were cultured and Per2-luciferafe reporter luminescence was measured for 6 days. Raw and subtracted results for 5 days were exported and data was calculated as luminescence counts per second.

mice = conditions: chow and high-fat diet; Xiong et al., 2023; cited from earlier work

Q: Which results are given for `CCCCCCCCCCCCCCC(Br)C(=O)O` (centres unmarked) [2-BrP]?
A: CLOCK protein stability (CLOCK protein): reduces CLOCK protein stability; CLOCK palmitoylation (CLOCK protein; Flag-tagged CLOCK in HEK 293T cells): loss of CLOCK palmitoylation

Q: For `CCCCCCCNC(=N)NC(=N)Nc1ccc(Cl)cc1` [CM001], which Myogenesis (C2C12 myoblasts) is on record?
A: The Myogenesis was “No effect”.

Q: And the “LumiCycle Result: Clock activity, Amplitude” value [1]?
A: Its value is “Amplitude: No effect”.

Q: For `N=C(NCCCCCCNC(=N)Nc1ccc(Cl)cc1)NC(=N)Nc1ccc(Cl)cc1` [CM003], which “LumiCycle Result: Clock activity (overall)” value (“LumiCycle Result … (overall)” below) [1] is on record?
A: Its value is “No effect”.

Q: What does the source list for `N=C(NCCCCCCNC(=N)Nc1ccc(Cl)cc1)Nc1ccc(Cl)cc1` [CM004]?
A: Myogenesis (C2C12 myoblasts): Enhanced; LumiCycle Result: Clock activity, Amplitude [1]: Amplitude: Increased; LumiCycle Result: Clock activity, Period [1]: Period: Shortening; Modulatory Property [1]: Activator

Q: Which Myogenesis (C2C12 myoblasts) does the source give for `N=C(NCCCCCCCCCCCCCCNC(=N)NC(=N)Nc1ccc(Cl)cc1)NC(=N)Nc1ccc(Cl)cc1` [CM005] here?
A: Its Myogenesis is “Slight inhition”.

Q: And the “LumiCycle Result: Clock activity, Amplitude” value [1]?
A: Its value is “Amplitude: Increased at low”.

Q: What about the “LumiCycle Result: Clock activity, Period” value [1] of the same molecule?
A: Its value is “Period: Lengthening”.

Q: What about the “Modulatory Property” value [1] of the same molecule?
A: Its value is “Inhibitor”.

Q: For `CCCCCCCNC(=N)Nc1nc2ccc(Cl)cc2[nH]1` [CM007], which “LumiCycle Result … (overall)” value [1] is on record?
A: The value was “No effect”.

Q: For `N=C(NCCCCCCNC(N)=O)NC(=N)Nc1ccc(Cl)cc1` [CM008], which “LumiCycle Result … (overall)” value [1] is on record?
A: The value was “Cellular toxicity”.

Q: With `COc1ccc(-c2cc(=O)c3c(OC)c(OC)c(OC)c(OC)c3o2)cc1OC` [Nobiletin] as the molecule, how does the anti-obesity effect (mice) read?
A: Its anti-obesity effect is “strong anti-obesity effect”.

Q: For `CCCCCCCCCCC[C@@H](C[C@@H]1OC(=O)[C@H]1CCCCCC)OC(=O)[C@H](CC(C)C)NC=O` [Orlistat], which CLOCK protein stability (CLOCK protein) is on record?
A: The CLOCK protein stability was “reduces CLOCK protein stability”.
